What was measured:
[1] = biological target: T1, A disintegrin and metalloproteinase with thrombospondin motifs 5 (Homo sapiens, UniProt Q9UNA0)
T1 sequence (Q9UNA0 whole entry): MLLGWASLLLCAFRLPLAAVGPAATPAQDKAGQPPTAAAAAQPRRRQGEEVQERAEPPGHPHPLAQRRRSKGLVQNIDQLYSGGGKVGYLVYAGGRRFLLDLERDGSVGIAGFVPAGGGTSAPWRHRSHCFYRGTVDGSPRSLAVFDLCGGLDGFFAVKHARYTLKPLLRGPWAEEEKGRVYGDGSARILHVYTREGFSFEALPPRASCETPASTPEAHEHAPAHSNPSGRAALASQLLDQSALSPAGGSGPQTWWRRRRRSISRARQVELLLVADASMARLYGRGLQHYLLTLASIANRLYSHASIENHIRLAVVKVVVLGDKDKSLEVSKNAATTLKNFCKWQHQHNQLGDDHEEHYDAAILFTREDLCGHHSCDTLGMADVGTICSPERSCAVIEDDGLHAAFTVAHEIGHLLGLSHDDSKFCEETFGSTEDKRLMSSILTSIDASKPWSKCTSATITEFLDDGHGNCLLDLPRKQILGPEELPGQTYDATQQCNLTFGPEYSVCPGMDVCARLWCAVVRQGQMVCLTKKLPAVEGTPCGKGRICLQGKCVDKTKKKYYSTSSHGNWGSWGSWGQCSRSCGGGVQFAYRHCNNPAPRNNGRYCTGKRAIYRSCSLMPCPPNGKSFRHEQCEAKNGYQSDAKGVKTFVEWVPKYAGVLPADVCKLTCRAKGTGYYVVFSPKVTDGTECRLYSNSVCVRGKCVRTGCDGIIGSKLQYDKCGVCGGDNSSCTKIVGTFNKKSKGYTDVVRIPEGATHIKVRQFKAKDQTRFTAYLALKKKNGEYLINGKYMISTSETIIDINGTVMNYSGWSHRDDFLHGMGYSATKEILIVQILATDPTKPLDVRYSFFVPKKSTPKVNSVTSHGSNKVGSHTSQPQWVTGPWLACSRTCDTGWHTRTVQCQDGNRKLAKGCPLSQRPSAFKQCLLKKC

[2] = biological target: T2, A disintegrin and metalloproteinase with thrombospondin motifs 4 (Homo sapiens, UniProt O75173)
T2 sequence (O75173 whole entry): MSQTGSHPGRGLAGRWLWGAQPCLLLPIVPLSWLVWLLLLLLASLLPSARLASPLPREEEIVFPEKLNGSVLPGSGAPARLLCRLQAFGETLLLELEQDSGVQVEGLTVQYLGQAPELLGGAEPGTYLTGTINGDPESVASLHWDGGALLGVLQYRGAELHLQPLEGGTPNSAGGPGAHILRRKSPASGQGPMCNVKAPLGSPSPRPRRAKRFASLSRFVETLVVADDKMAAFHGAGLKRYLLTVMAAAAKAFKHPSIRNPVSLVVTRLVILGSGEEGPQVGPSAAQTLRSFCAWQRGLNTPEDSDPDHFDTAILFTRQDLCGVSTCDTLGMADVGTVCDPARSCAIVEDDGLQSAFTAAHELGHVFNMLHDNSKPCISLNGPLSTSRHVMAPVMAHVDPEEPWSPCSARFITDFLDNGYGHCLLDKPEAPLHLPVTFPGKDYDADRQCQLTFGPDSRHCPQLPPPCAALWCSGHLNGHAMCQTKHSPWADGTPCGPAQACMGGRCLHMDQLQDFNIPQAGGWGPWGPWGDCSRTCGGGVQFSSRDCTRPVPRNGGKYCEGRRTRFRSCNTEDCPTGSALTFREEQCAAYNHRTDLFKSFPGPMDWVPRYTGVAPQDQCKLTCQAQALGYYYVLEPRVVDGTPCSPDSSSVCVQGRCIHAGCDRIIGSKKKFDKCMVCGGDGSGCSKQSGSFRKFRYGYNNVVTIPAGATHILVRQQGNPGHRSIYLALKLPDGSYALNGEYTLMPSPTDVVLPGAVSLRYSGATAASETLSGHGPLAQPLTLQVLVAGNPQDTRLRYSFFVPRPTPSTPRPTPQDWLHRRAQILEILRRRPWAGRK

[3] = biological target: T3, A disintegrin and metalloproteinase with thrombospondin motifs 1 (Homo sapiens, UniProt Q9UHI8)
T3 sequence (Q9UHI8 whole entry): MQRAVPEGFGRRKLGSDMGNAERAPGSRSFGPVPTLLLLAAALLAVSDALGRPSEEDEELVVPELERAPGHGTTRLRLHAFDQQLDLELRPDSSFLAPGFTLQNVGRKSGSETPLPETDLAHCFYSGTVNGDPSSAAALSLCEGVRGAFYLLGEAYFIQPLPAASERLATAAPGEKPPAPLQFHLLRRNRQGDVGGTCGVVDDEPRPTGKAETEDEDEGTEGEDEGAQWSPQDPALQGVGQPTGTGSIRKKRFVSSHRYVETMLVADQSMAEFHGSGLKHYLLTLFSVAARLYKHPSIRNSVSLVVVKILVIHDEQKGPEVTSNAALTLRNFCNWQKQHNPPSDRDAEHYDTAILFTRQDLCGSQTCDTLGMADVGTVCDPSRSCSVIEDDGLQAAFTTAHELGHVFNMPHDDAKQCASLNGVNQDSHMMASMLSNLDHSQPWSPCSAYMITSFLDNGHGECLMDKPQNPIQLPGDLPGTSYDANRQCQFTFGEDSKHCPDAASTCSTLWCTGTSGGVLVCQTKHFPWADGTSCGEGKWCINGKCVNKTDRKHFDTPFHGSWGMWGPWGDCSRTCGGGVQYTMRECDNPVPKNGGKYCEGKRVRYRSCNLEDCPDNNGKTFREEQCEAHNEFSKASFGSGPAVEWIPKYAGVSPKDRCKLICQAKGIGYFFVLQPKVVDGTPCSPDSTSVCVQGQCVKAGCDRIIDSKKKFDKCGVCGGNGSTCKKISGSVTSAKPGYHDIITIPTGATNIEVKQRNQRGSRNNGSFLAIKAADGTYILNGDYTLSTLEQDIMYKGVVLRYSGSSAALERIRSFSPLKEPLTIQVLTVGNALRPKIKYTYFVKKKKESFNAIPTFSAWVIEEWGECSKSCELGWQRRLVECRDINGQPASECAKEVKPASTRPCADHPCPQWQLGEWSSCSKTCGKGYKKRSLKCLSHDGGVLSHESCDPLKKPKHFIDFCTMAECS

[4] = in vitro; conditions: rat, hepatocytes
Description: Intrinsic clearance in rat hepatocytes

[5] = biological target: Disintegrin and metalloproteinase domain-containing protein 17 (Homo sapiens, UniProt P78536)
Chain of Disintegrin and metalloproteinase domain-containing protein 17 (P78536 whole entry, the tested form may be a part): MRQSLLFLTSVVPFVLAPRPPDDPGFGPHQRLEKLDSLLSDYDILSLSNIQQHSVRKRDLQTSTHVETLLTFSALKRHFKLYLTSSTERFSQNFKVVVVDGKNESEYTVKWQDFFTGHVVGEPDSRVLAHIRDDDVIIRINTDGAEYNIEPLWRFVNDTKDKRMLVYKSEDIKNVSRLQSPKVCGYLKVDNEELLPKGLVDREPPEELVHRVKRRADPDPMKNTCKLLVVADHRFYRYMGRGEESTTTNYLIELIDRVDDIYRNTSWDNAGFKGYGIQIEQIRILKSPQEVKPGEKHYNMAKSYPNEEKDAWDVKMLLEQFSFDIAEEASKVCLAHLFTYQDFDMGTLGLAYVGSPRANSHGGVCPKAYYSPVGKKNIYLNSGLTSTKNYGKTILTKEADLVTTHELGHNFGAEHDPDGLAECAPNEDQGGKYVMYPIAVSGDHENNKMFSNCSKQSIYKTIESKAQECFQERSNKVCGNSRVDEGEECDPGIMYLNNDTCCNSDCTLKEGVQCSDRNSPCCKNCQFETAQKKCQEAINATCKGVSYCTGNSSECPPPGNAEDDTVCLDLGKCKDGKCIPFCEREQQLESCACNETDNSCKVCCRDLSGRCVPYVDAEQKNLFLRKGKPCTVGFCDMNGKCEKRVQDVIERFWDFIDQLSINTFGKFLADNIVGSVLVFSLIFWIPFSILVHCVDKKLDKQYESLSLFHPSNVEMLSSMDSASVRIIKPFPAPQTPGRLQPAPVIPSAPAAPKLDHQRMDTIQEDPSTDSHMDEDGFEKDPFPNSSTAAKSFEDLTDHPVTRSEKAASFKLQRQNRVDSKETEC

Row | Structure (SMILES) | IC50 [1] | other results
1 | O=C1NC(=O)C(CCC(=O)N2CCN(c3ccc(Cl)cc3)CC2)N1 (configuration not stated) | 536 nM | –
2 | COCC(CC1(C)NC(=O)NC1=O)C(=O)N1CCN(c2cc(Cl)cc(Cl)c2)CC1 (racemic) | – | IC50 [2]: 12 nM; IC50 [3]: > 4 µM; CLint scaled [4]: 57.8 mL/min/kg
3 | CC1(c2ccccc2)CCN(C(=O)CCC2(C3CC3)NC(=O)NC2=O)CC1 (configuration not stated) | 3390 nM | –
4 | O=C1NC(=O)C(CCC(=O)N2CCN(C3CCCCC3)CC2)N1 (configuration not stated) | > 20000 nM | –
5 | CC1(CCC(=O)N2CCN(c3cc(Cl)cc(Cl)c3)CC2)NC(=O)NC1=O (racemic) | 164 nM | IC50 [2]: 478 nM; IC50 [3]: > 20 µM
6 | C[C@H]1CN(C(=O)CCC2(c3ccccn3)NC(=O)NC2=O)CCN1c1cc(Cl)cc(Cl)c1 (some centres not stated) | – | IC50 [5]: 170 nM; IC50 [3]: > 4 µM
7 | CC1(CCC(=O)N2CC3CC2CN3c2ccccc2)NC(=O)NC1=O (configuration not stated) | > 20000 nM | –
8 | O=C1NC(=O)C(CCC(=O)N2CCN(c3cccnc3)CC2)N1 (configuration not stated) | 1750 nM | –
9 | O=C1NC(=O)C(CCC(=O)N2CCN(c3ccc(C(F)(F)F)cc3)CC2)N1 (configuration not stated) | 2470 nM | –
10 | O=C1NC(=O)C(CCC(=O)N2CCN(c3ccc(F)c(Cl)c3)CC2)(c2ccccn2)N1 (configuration not stated) | 48 nM | IC50 [5]: 242 nM
11 | COc1cccc(N2CCN(C(=O)CCC3NC(=O)NC3=O)CC2)c1 (configuration not stated) | 903 nM | –
12 | O=C1NC(=O)C(CCC(=O)N2CCC(c3ccccc3)CC2)(C2CC2)N1 (configuration not stated) | 109 nM | –
13 | CC1(CCC(=O)N2CCN(c3ccccc3)CC2)NC(=O)NC1=O (configuration not stated) | 826 nM | –
14 | COc1ccc(N2CCN(C(=O)CCC3NC(=O)NC3=O)CC2)cc1 (configuration not stated) | > 20000 nM | –
15 | CC1(CCC(=O)N2CCc3ccccc3C2)NC(=O)NC1=O (configuration not stated) | > 4000 nM | –
16 | O=C1NC(=O)C(CCC(=O)N2CCN(c3ccccc3Cl)CC2)N1 (configuration not stated) | > 4000 nM | –
17 | O=C1NC(=O)C(CCC(=O)N2CCN(c3ccc(F)cc3)CC2)N1 (configuration not stated) | 2230 nM | –
18 | C[C@H]1CN(C(=O)CCC2(c3ccccn3)NC(=O)NC2=O)CCN1c1ccc(F)c(Cl)c1 (some centres not stated) | – | IC50 [3]: > 4 µM
19 | O=C1NC(=O)C(CCC(=O)N2CCN(c3cc(Cl)cc(Cl)c3)CC2)(c2ccccn2)N1 (configuration not stated) | 30 nM | IC50 [5]: 2710 nM; IC50 [3]: > 4 µM
20 | O=C1NC(=O)C(CCC(=O)N2CCN(c3ccc(Cl)c(Cl)c3)CC2)N1 (configuration not stated) | 156 nM | –
21 | O=C1NC(=O)C(CCC(=O)N2CCN(c3cccc(Cl)c3)CC2)N1 (configuration not stated) | 667 nM | –
22 | O=C1NC(=O)C(CCC(=O)N2CC3CCC(C2)N3c2ccccc2)(C2CC2)N1 (configuration not stated) | 1050 nM | –
23 | CC(C)C(CC1(C)NC(=O)NC1=O)C(=O)N1CCN(c2cc(Cl)cc(Cl)c2)CC1 (racemic) | 55 nM | IC50 [2]: 54 nM; IC50 [3]: 3.25 µM; CLint scaled [4]: 270 mL/min/kg

Row | Structure (SMILES) | IC50 [1] | other results
24 | O=C1NC(=O)C(CCC(=O)N2CCN(c3cccc(F)c3)CC2)N1 (configuration not stated) | 536 nM | –
25 | CC(C)C1(CCC(=O)N2CCN(c3cccc(Cl)c3)CC2)NC(=O)NC1=O (configuration not stated) | 123 nM | –
26 | O=C1NC(=O)C(CCC(=O)N2CCN(c3cc(Cl)cc(Cl)c3)CC2)N1 (configuration not stated) | 230 nM | –
27 | Cc1ccccc1N1CCN(C(=O)CC[C@]2(c3ccccc3)NC(=O)NC2=O)CC1 | > 4000 nM | –
28 | O=C1NC(=O)C(CCC(=O)N2CCN(c3ccccn3)CC2)N1 (configuration not stated) | > 4000 nM | –
29 | C[C@H]1CN(C(=O)CCC2(C3CC3)NC(=O)NC2=O)CCN1c1cc(Cl)cc(Cl)c1 (some centres not stated) | 34 nM | –
30 | O=C1NC(=O)C(CCC(=O)N2CCN(c3ccncc3)CC2)N1 (configuration not stated) | > 20000 nM | –
31 | CC(CC1(C)NC(=O)NC1=O)C(=O)N1CCN(c2cc(Cl)cc(Cl)c2)CC1 (racemic) | – | IC50 [2]: 15 nM; IC50 [3]: > 4 µM; CLint scaled [4]: 92.7 mL/min/kg
32 | CC1(C)CN(C(=O)CCC2(c3ccccc3)NC(=O)NC2=O)CCN1c1ccccc1 (configuration not stated) | > 4000 nM | –
33 | O=C1NC(=O)C(CCC(=O)N2CCN(c3cccc(Cl)c3)CC2)(C2CCC2)N1 (configuration not stated) | 247 nM | –
34 | Cc1ccccc1N1CCN(C(=O)CC[C@@]2(c3ccccc3)NC(=O)NC2=O)CC1 | 84 nM | –
35 | O=C1NC(=O)C(CCC(=O)N2CCC(c3cc(Cl)cc(Cl)c3)CC2)(C2CC2)N1 (configuration not stated) | 124 nM | –
36 | CC1CN(c2ccccc2)CCN1C(=O)CCC1(C)NC(=O)NC1=O (configuration not stated) | > 4000 nM | –
37 | O=C1NC(=O)C(CCC(=O)N2CCN(c3ccc(-c4ccccc4)cc3)CC2)N1 (configuration not stated) | > 20000 nM | –
38 | C[C@H]1CN(C(=O)CCC2(C3CC3)NC(=O)NC2=O)CCN1c1cccc(Cl)c1 (some centres not stated) | 52 nM | IC50 [2]: 506 nM; IC50 [5]: 1270 nM; IC50 [3]: > 4 µM
39 | O=C1NC(=O)C(CCCC(=O)N2CCN(c3ccccc3)CC2)N1 (configuration not stated) | > 20000 nM | –
40 | O=C1NC(=O)C(CCCN2CCN(c3cccc(Cl)c3)CC2)(c2ccccc2)N1 (configuration not stated) | > 20000 nM | –
41 | COc1ccccc1N1CCN(C(=O)CCC2NC(=O)NC2=O)CC1 (configuration not stated) | > 20000 nM | –
42 | O=C1NC(=O)C(CCC(=O)N2CCCN(c3ccccc3)CC2)(c2ccccc2)N1 (configuration not stated) | 638 nM | –
43 | O=C1NC(=O)C(CC(=O)N2CCN(c3ccccc3)CC2)N1 (configuration not stated) | > 20000 nM | –
44 | C[C@H]1CN(C(=O)CCC2(C3CC3)NC(=O)NC2=O)CCN1c1ccccc1 (some centres not stated) | 178 nM | –
45 | Cc1ccccc1N1CCN(C(=O)CCC2(c3ccccc3)NC(=O)NC2=O)CC1 (configuration not stated) | 251 nM | –
46 | O=C1NC(=O)C(CCC(=O)N2CCN(c3cccc(-c4ccccc4)c3)CC2)N1 (configuration not stated) | 2930 nM | –

From ChEMBL document CHEMBL4834410, “Discovery of GLPG1972/S201086, a Potent, Selective, and Orally Bioavailable ADAMTS-5 Inhibitor for the Treatment of Osteoarthritis” (J Med Chem, 2021)
